Series [1] concerns the target ErbB2 with Exon 20 YVMA insertion (HER2-YVMA) (Homo sapiens (Human), UniProt P04626, INS775YVMA). Description: Cellular Phosphorylation Assay, Assay 4 (constitutive ErbB2 phosphorylation, NIH 3T3 cells). Format: cell-based.
Another series deals with EGFR wild type (EGFR WT) (Homo sapiens (Human), UniProt P00533). The series can be described thus: Cellular Phosphorylation Assay, Assay 5 (EGF-stimulated EGFR phosphorylation, NIH 3T3 cells). Format: cell-based.
The next series addresses EGFR (Homo sapiens (Human), UniProt P00533). The series can be described thus: ErbB Enzyme Assay (HTRF KinEASE-TK), Assay 3. Type of series: biochemical.
The target in another series is BCRP (Homo sapiens (Human), UniProt Q9UNQ0). Description: BCRP MDCKII efflux assay (Assay 7). As to conditions: dog; efflux ratio Papp(B-A)/Papp(A-B), BCRP MDCKII cells; read-out: Assay 7 Pe Ratio. Type of series: in vitro ADME. As to the method: Assay conditions included with and without the BCRP-specific inhibitor, KO143, at a concentration of 0.3 μM to ascertain the contribution of BCRP to the efflux value of the test compound.
BCRP, sequence (Q9UNQ0 whole entry): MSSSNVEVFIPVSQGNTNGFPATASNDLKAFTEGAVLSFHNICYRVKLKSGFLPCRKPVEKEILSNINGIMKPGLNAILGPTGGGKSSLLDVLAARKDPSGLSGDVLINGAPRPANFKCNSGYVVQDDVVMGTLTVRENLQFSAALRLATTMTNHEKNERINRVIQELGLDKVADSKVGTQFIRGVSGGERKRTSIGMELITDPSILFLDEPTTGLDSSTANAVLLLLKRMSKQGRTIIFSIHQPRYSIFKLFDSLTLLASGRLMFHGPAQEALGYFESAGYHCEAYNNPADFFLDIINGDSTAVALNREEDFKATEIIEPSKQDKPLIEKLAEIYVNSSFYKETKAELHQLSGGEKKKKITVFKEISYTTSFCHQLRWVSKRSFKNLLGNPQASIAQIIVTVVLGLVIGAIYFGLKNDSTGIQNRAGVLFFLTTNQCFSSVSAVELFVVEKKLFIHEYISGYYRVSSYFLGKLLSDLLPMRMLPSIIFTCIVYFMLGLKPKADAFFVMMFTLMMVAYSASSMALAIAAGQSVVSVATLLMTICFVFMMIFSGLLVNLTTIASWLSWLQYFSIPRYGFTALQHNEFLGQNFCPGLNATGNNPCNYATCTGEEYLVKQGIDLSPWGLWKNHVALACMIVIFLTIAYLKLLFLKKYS
Final organic concentration in the assay was 1%.

For another series, the target named is ErbB2 WT (Homo sapiens (Human), UniProt P04626). Description: ErbB Enzyme Assay (HTRF KinEASE-TK), Assay 2. Type of series: biochemical.
ErbB2 WT, sequence (P04626 23-1255): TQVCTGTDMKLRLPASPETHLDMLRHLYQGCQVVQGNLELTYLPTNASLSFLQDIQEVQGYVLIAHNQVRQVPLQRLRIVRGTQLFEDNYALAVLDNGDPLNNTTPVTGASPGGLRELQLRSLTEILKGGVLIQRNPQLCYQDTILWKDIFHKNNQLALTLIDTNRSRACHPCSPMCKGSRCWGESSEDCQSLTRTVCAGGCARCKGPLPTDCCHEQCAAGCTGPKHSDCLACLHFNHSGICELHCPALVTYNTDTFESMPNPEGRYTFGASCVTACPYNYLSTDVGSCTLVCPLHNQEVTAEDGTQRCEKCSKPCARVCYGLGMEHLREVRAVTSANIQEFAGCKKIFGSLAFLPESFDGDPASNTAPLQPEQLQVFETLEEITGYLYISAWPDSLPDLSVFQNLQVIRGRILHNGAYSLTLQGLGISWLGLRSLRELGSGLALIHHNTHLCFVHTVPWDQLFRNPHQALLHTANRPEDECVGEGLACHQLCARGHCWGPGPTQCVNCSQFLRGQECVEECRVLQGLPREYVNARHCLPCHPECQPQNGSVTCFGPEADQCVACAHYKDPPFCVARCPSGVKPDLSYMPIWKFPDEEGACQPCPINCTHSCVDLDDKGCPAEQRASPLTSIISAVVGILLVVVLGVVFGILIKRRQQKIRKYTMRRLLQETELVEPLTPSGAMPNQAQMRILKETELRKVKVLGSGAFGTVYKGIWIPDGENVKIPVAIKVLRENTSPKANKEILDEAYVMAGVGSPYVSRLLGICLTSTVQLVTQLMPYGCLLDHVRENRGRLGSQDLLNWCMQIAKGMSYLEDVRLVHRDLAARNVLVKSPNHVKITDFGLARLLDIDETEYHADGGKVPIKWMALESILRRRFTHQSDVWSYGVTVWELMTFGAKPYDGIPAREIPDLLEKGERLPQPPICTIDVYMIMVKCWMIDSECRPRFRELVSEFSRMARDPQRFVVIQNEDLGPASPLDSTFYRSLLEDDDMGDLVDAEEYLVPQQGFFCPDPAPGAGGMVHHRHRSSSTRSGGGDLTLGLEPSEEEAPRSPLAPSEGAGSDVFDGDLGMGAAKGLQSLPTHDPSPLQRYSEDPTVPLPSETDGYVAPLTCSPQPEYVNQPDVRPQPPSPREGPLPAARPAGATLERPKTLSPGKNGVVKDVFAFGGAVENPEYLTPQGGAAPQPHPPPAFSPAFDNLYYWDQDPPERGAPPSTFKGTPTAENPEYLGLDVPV
[2] abbreviates: EGF-stimulated EGFR WT phosphorylation.
Where [3] appears, read: cellular ErbB2 YVMA phosphorylation.
Setting [4] is: cellular EGFR WT phosphorylation, EGF-stimulated.

EGFR wild type (EGFR WT), sequence (P00533 25-1210): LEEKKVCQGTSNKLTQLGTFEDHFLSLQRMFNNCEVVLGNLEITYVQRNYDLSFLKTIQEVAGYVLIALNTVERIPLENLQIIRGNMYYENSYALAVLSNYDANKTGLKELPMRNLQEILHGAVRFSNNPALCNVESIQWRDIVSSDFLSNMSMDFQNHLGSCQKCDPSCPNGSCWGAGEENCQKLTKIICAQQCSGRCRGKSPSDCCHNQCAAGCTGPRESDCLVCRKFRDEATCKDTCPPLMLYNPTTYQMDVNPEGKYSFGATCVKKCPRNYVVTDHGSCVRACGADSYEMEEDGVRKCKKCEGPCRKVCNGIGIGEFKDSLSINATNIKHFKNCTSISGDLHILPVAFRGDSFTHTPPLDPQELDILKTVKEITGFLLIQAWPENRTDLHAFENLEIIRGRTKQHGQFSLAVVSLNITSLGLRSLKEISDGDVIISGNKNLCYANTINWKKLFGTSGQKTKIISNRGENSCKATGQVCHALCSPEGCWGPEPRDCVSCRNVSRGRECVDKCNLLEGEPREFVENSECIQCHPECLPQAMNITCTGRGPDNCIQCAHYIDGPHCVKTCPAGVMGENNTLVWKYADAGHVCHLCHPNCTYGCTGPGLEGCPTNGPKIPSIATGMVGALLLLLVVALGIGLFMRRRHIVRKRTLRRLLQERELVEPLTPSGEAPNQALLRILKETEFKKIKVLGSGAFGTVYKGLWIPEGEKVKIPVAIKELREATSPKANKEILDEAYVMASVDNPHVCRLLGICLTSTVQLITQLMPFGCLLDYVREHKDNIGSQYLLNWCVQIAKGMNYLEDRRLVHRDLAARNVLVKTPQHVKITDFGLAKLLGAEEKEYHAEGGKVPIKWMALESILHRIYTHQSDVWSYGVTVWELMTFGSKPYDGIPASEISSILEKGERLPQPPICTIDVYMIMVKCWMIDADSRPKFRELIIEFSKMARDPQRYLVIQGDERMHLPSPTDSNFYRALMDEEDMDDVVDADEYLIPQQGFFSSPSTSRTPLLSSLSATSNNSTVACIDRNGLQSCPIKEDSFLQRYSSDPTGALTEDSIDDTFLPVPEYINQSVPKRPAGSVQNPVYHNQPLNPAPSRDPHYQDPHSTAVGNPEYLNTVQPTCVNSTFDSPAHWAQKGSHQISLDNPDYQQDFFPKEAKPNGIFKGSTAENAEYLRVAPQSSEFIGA
EGFR, sequence (P00533 25-1210): as above

In the case of `C=CC(=O)N1[C@@H]2CC[C@H]1C[C@H](c1ccc3ncnc(Nc4ccc(Oc5ccc6c(c5)ncn6C)c(C)c4F)c3n1)C2` [Example 195, 1-((1R,3s,5S)-3-(4-((2-fluoro-3-methyl-4-((1-methyl-1H-benzo[d]imidazol-5-yl)oxy)phenyl)amino)pyrido[3,2-d]pyrimidin-6-yl)-8-azabicyclo[3.2.1]octan-8-yl)prop-2-en-1-one], the IC50 in series [1] (ErbB2 YVMA phosphorylation) was 17.9 nM; at EGFR wild type (EGFR WT) (setting [2]) it was 1060 nM; on EGFR (EGFR enzyme) it was 2550 nM; against ErbB2 WT (ErbB2 WT enzyme), 59.7 nM. Further, at BCRP, the efflux ratio at 2 h, 1 µM stood at 1.7.
Taken in the same sequence, the figures for `C=CC(=O)N1CCC(c2ccc3ncnc(Nc4ccc(Oc5ccc6c(c5)ncn6C)c(C)c4)c3n2)CC1C` (stereo not shown) [Example 123, 1-(2-methyl-4-(4-((3-methyl-4-((1-methyl-1H-benzo[d]imidazol-5-yl)oxy)phenyl)amino)pyrido[3,2-d]pyrimidin-6-yl)piperidin-1-yl)prop-2-en-1-one] were 7.6 nM, no less than 5000 nM, no less than 10000 nM, 60.4 nM and 7.3.
Taken in the same sequence, the figures for `C=CC(=O)N1C[C@H]2C[C@@H]1CN2c1ccc2ncnc(Nc3ccc(Oc4ccc5c(c4)ncn5C)c(C)c3F)c2n1` [Example 83, 1-((1R,4R)-5-(4-((2-fluoro-3-methyl-4-((1-methyl-1H-benzo[d]imidazol-5-yl)oxy)phenyl)amino)pyrido[3,2-d]pyrimidin-6-yl)-2,5-diazabicyclo[2.2.1]heptan-2-yl)prop-2-en-1-one] were 9.6 nM, no less than 5000 nM, 5580 nM, 81.5 nM and 6.3.
In the case of `C=CC(=O)N1CC[C@@H](c2ccc3ncnc(Nc4ccc(Oc5ccc6c(c5)ncn6C)c(C)c4F)c3n2)C1` (racemic) [Example 131, rac-(R)-1-(3-(4-((2-fluoro-3-methyl-4-((1-methyl-1H-benzo[d]imidazol-5-yl)oxy)phenyl)amino)pyrido[3,2-d]pyrimidin-6-yl)pyrrolidin-1-yl)prop-2-en-1-one], the IC50 in series [1] (ErbB2 YVMA phosphorylation) turned out to be 9.6 nM; at EGFR wild type (EGFR WT) (setting [2]), 4760 nM; against EGFR (EGFR enzyme), 2160 nM; against ErbB2 WT (ErbB2 WT enzyme) it was 55.9 nM. For the same compound, on BCRP, the efflux ratio at 2 h, 1 µM was 6.4.
Regarding `C=CC(=O)N1CC[C@H]2C[C@H](c3ccc4ncnc(Nc5ccc(Oc6ccn7ncnc7c6)c(C)c5)c4n3)C[C@H]21` [Example 383], the half-maximal inhibitory concentration (IC50) in series [1] (setting [3]) stood at 17.5 nM; at EGFR wild type (EGFR WT) (setting [4]), 488 nM; against EGFR (EGFR enzyme assay), 979 nM; against ErbB2 WT (ErbB2 WT enzyme assay), 12.5 nM. Also, the efflux ratio at 2 h, 1 µM at BCRP amounted to 9.5.
With `C=CC(=O)N1CCC(Sc2nc3c(Nc4ccc(Oc5ccc6c(c5)ncn6C)c(C)c4)ncnc3cc2OC)CC1` [Example 159, 1-(4-((7-methoxy-4-((3-methyl-4-((1-methyl-1H-benzo[d]imidazol-5-yl)oxy)phenyl)amino)pyrido[3,2-d]pyrimidin-6-yl)thio)piperidin-1-yl)prop-2-en-1-one], the IC50 is 12 nM in series [1] (ErbB2 YVMA phosphorylation), 493 nM against EGFR wild type (EGFR WT) (setting [2]), 452 nM on EGFR (EGFR enzyme) and 20.4 nM on ErbB2 WT (ErbB2 WT enzyme). Further, at BCRP, the efflux ratio at 2 h, 1 µM was found to be 15.
Regarding `C=CC(=O)N1CC2CCC(C1)N2c1ccc2ncnc(Nc3cc(Cl)c(Oc4ccn5ncnc5c4)cc3F)c2n1` [Example 441], the IC50 in series [1] (setting [3]) came out at 17.8 nM; against EGFR wild type (EGFR WT) (setting [4]), 770 nM; against EGFR (EGFR enzyme assay), 682 nM; at ErbB2 WT (ErbB2 WT enzyme assay), 31.1 nM. The efflux ratio at 2 h, 1 µM on BCRP was determined as 7.3.
Take `C=CC(=O)N1CCC(c2ccc3ncnc(Nc4ccc(Oc5ccc6c(c5)ncn6C)c(C)c4)c3n2)C1` (racemic) [Example 120, rac-(R)-1-(3-(4-((3-methyl-4-((1-methyl-1H-benzo[d]imidazol-5-yl)oxy)phenyl)amino)pyrido[3,2-d]pyrimidin-6-yl)pyrrolidin-1-yl)prop-2-en-1-one]: the IC50 is 8.4 nM in series [1] (ErbB2 YVMA phosphorylation), no less than 5000 nM against EGFR wild type (EGFR WT) (setting [2]), 7270 nM against EGFR (EGFR enzyme) and 42 nM at ErbB2 WT (ErbB2 WT enzyme). Also, the efflux ratio at 2 h, 1 µM on BCRP was found to be 15.8.
Take `C=CC(=O)N1CCN(c2ccc3ncnc(Nc4ccc(Oc5cnc6c(c5)ncn6C)c(C)c4F)c3n2)C[C@@H]1C(F)F` (racemic) [Example 300]: the IC50 was 9.5 nM in series [1] (setting [3]), 653 nM at EGFR wild type (EGFR WT) (setting [4]), 277 nM at EGFR (EGFR enzyme assay) and 11.3 nM against ErbB2 WT (ErbB2 WT enzyme assay). Further, the efflux ratio at 2 h, 1 µM on BCRP turned out to be 5.8.
As for `C=CC(=O)N1CCC2CN(c3ccc4ncnc(Nc5ccc(Oc6ccn7ncnc7c6)c(Cl)c5)c4n3)CC21` (stereo not shown) [Example 70, 1-(5-(4-((4-([1,2,4]triazolo[1,5-a]pyridin-7-yloxy)-3-chlorophenyl)amino)pyrido[3,2-d]pyrimidin-6-yl)hexahydropyrrolo[3,4-b]pyrrol-1(2H)-yl)prop-2-en-1-one], the IC50 in series [1] (ErbB2 YVMA phosphorylation) is 21.6 nM; at EGFR wild type (EGFR WT) (setting [2]), no less than 5000 nM; against EGFR (EGFR enzyme), 2950 nM; on ErbB2 WT (ErbB2 WT enzyme), 10 nM. Besides, the efflux ratio at 2 h, 1 µM at BCRP worked out at 41.8.
For `C=CC(=O)N1CCN(c2ccc3ncnc(Nc4ccc(Oc5ccc6c(c5)ncn6C)c(Cl)c4)c3n2)CC1` [Example 72, 1-(4-(4-((3-chloro-4-((1-methyl-1H-benzo[d]imidazol-5-yl)oxy)phenyl)amino)pyrido[3,2-d]pyrimidin-6-yl)piperazin-1-yl)prop-2-en-1-one] the same measures were 4.7 nM, 511 nM, 880 nM, 8.7 nM and 15.4.
Take `C=CC(=O)N1C[C@@H]2CC[C@H]1CN(c1ccc3ncnc(Nc4ccc(Oc5ccn6ncnc6c5)c(C)c4F)c3n1)C2` (racemic) [Example 327]: the IC50 in series [1] (setting [3]) was found to be 9.3 nM; at EGFR wild type (EGFR WT) (setting [4]) it was 3500 nM; against EGFR (EGFR enzyme assay), 1160 nM; against ErbB2 WT (ErbB2 WT enzyme assay), 12.8 nM. Moreover, the efflux ratio at 2 h, 1 µM on BCRP was 5.4.
In the case of `C=CC(=O)N1C[C@@H]2C[C@H]1CN2c1ccc2ncnc(Nc3cc(Cl)c(Oc4ccn5ncnc5c4)cc3F)c2n1` [Example 80, 1-((1S,4S)-5-(4-((4-([1,2,4]triazolo[1,5-a]pyridin-7-yloxy)-5-chloro-2-fluorophenyl)amino)pyrido[3,2-d]pyrimidin-6-yl)-2,5-diazabicyclo[2.2.1]heptan-2-yl)prop-2-en-1-one], the IC50 in series [1] (ErbB2 YVMA phosphorylation) is 4.1 nM; against EGFR wild type (EGFR WT) (setting [2]) it was 246 nM; on EGFR (EGFR enzyme), 218 nM; at ErbB2 WT (ErbB2 WT enzyme) it was 17 nM. Further, the efflux ratio at 2 h, 1 µM at BCRP is 12.4.
For the compound `C=CC(=O)N1[C@@H]2CC[C@H]1C[C@@H](c1ccc3ncnc(Nc4ccc(Oc5cnc6c(c5)ncn6C)c(C)c4)c3n1)C2` [Example 219, 1-((1R,3r,5S)-3-(4-((3-methyl-4-((3-methyl-3H-imidazo[4,5-b]pyridin-6-yl)oxy)phenyl)amino)pyrido[3,2-d]pyrimidin-6-yl)-8-azabicyclo[3.2.1]octan-8-yl)prop-2-en-1-one], the IC50 in series [1] (ErbB2 YVMA phosphorylation) was 20.1 nM; at EGFR wild type (EGFR WT) (setting [2]) it was no less than 5000 nM; at EGFR (EGFR enzyme), 3660 nM; against ErbB2 WT (ErbB2 WT enzyme) it was 111 nM. At BCRP, the efflux ratio at 2 h, 1 µM turned out to be 9.3.
Turning to `C=CC(=O)N1CCN(c2ccc3ncnc(Nc4ccc(Oc5cnc6c(c5)ncn6C)c(Cl)c4)c3n2)CC1` [Example 33, 1-(4-(4-((3-chloro-4-((3-methyl-3H-imidazo[4,5-b]pyridin-6-yl)oxy)phenyl)amino)pyrido[3,2-d]pyrimidin-6-yl)piperazin-1-yl)prop-2-en-1-one], the IC50 stood at 3.8 nM in series [1] (ErbB2 YVMA phosphorylation), 869 nM against EGFR wild type (EGFR WT) (setting [2]), 1150 nM against EGFR (EGFR enzyme) and 15.8 nM at ErbB2 WT (ErbB2 WT enzyme). Also, the efflux ratio at 2 h, 1 µM on BCRP is 42.7.
For `C=CC(=O)N1CCN(c2ccc3ncnc(Nc4ccc(Oc5ccn6ncnc6c5)c(C)c4F)c3n2)C[C@@H]1COC` [Example 362], the IC50 in series [1] (setting [3]) was 5.5 nM; at EGFR wild type (EGFR WT) (setting [4]) it was 818 nM; at EGFR (EGFR enzyme assay), 1080 nM; at ErbB2 WT (ErbB2 WT enzyme assay), 9.7 nM. The efflux ratio at 2 h, 1 µM on BCRP stood at 7.4.
In the case of `C=CC(=O)N(C)[C@H]1CCN(c2ccc3ncnc(Nc4cc(C)c(Oc5ccn6ncnc6c5)cc4F)c3n2)C1` [Example 351], the IC50 in series [1] (setting [3]) is 31 nM; against EGFR wild type (EGFR WT) (setting [4]) it was no less than 5000 nM; on EGFR (EGFR enzyme assay), 2860 nM; against ErbB2 WT (ErbB2 WT enzyme assay), 66.4 nM. Moreover, the efflux ratio at 2 h, 1 µM at BCRP was 6.4.
Taken in the same sequence, the figures for `C=CC(=O)N1C[C@@H]2C[C@H]1C[C@H]2c1ccc2ncnc(Nc3cc(C)c(Oc4ccc5c(c4)ncn5C)cc3F)c2n1` [Example 375] were 19 nM, 2020 nM, 1030 nM, 43.6 nM and 4.
Taken in the same sequence, the figures for `C=CC(=O)N1CC2(CCN2c2ccc3ncnc(Nc4ccc(Oc5ccn6ncnc6c5)c(C)c4F)c3n2)C1` [Example 289] were 53.7 nM, no less than 5000 nM, 2870 nM, 22.4 nM and 26.
Taken in the same sequence, the figures for `C=CC(=O)N1C2CC1CN(c1ccc3ncnc(Nc4cc(C)c(Oc5cnc6c(c5)ncn6C)cc4F)c3n1)C2` [Example 446] were 28 nM, no less than 5000 nM, no less than 10000 nM, 2560 nM and 19.4.

For the origin of these results see US12447153B2, “HER2 mutation inhibitors” (Array BioPharma Inc., priority 2021, dated 2025).
